Measurements reported in patent US4533670A, “Anti-convulsant fluorenylalkylimidazole derivatives, compositions, and method of use” (Eli Lilly and Company, priority 1983, dated 1985).
Where a name gives a salt, the structure may show the parent alone. Read-outs that look alike come from different tables or passages of the source.

Assays:
seizures = details: man; cited from earlier work
[1] = man, cited from earlier work
[2] = system: extensor tonic convulsions; test: Electroshock induced convulsion inhibition assay; format: in vivo, Cox standard strain albino male mice; details: Mus musculus, po, p.o. (gavage), mice, 0.1 second, 50 milliampere corneal electroshock, read-out: ED50 (dose which inhibited extensor tonic convulsions in one half of the animals)
From the text: The compounds of Formula II are anticonvulsant agents with a high therapeutic ratio and long half-life and are therefore useful in the treatment and/or prevention of convulsions in mammals. In particular, the compounds are effective against tonic extensor seizures elicited by maximal electroshock and should therefore be useful for treating generalized tonic-clonic ("grand mal"), cortical focal, complex partial (temporal lobe epilepsy), simple partial (focal motor), and post-traumaticseizures in humans. […] In the electroshock induced convulsion inhibition assay, the compound to be tested was dissolved in water (5%--sufficient hydrochloric acid was added for those compounds which were not isolated as a salt in order to effect dissolution) and administered by gavage to each of three Cox standard strain albino male mice (18-24 g.) at the dose level being investigated. Sixty to 240 minutes after compound administration, the mice were subjected to a 0.1 second, 50 milliampere electroshock through corneal electrodes. The animals were examined and evaluated immediately after the electroshock for the occurrence of clonic, flexor tonic, or extensor tonic convulsions, or death and the ED50 was determined for each compound (for the particular time after administration of the compound) as the dose which inhibited the occurrence of extensor tonic convulsions in one half of the animals immediately after the electroshock. For comparison, 18 milliamperes was usually sufficient to produce extensor tonic convulsions in about half of the control animals; at 50 milliamperes, almost all control animals (receiving vehicle only) died. The test results are summarized in Table I as the ED50 's at the optimal time after compound administration.

[3] = 1 h, 60 minutes after administration (optimal time)
[4] = 2 h, 120 minutes after administration (optimal time)

For O=C1NC(=O)C(c2ccccc2)(c2ccccc2)N1 [phenytoin], the “plasma level at which seizures are controlled” value (seizures) is given as no less than 10 µg/mL, the “plasma level at which ataxia is obvious” value ([1]; ataxia) is given as 30 µg/mL and the “plasma level at which lethargy is apparent” value ([1]; lethargy) is given as “about 40 mcg./ml”. The “plasma level at which nystagmus is seen” value ([1]; nystagmus) was “around 20 mcg./ml”.

O=C(OC(Cn1ccnc1)c1ccc2c(c1)Cc1ccccc1-2)c1ccccc1 (stereo not shown) [Example 16, 1-(9H-fluoren-2-yl)-2-(1H-imidazol-1-yl)-1-ethanol, benzoate ester hydrochloride] gave an ED50 [2, 3] of 32 mg/kg.

For CC1(C)c2ccccc2-c2ccc(C(=O)Cn3ccnc3)cc21.Cl [Example 6, 1-(9,9-Dimethyl-9H-fluoren-2-yl)-2-(1H-imidazol-1-yl)ethanone hydrochloride], the ED50 [2, 3] was 48 mg/kg.

In the case of Cl.O=C(Cn1ccnc1)c1cccc2c1Cc1ccccc1-2 [Example 9, 1-(9H-fluoren-1-yl)-2-(1H-imidazol-1-yl)ethanone hydrochloride], the ED50 [2, 4] is reported as 20 mg/kg.

Molecule Cc1nccn1CC(=O)c1ccc2c(c1)Cc1ccccc1-2.Cl [Example 1, 1-(9H-fluoren-2-yl)-2-(2-methyl-1H-imidazol-1-yl)ethanone hydrochloride] has an ED50 [2, 3] of 210 mg/kg.

Cl.O=C(CCn1ccnc1)c1ccc2c(c1)Cc1ccccc1-2 [Example 11, 1-(9H-fluoren-2-yl)-3-(1H-imidazol-1-yl)-1-propanone hydrochloride] gave an ED50 [2, 3] of 19 mg/kg.

CCC(C(=O)c1ccc2c(c1)Cc1ccccc1-2)n1ccnc1.Cl (stereo not shown) [Example 13, 2-(1H-imidazol-1-yl)-1-(9H-fluoren-2-yl)-1-butanone hydrochloride] showed an ED50 [2, 3] of 50 mg/kg.

In the case of Cc1ccc2c(c1)Cc1cc(C(=O)Cn3ccnc3)ccc1-2.Cl [Example 7, 2-(1H-imidazol-1-yl)-1-(7-methyl-9H-fluoren-2-yl)ethanone hydrochloride], the ED50 [2, 4] is reported as 68 mg/kg.

Molecule CC1c2ccccc2-c2ccc(C(=O)Cn3ccnc3)cc21.Cl (stereo not shown) [Example 5, 2-(1H-imidazol-1-yl)-1-(9-methyl-9H-fluoren-2-yl)ethanone hydrochloride] has an ED50 [2, 4] of 33 mg/kg.

Work on Cl.O=C(Cn1ccnc1)c1cccc2c1-c1ccccc1C2 [Example 10, 1-(9H-fluoren-4-yl)-2-(1H-imidazol-1-yl)ethanone hydrochloride] yielded an ED50 [2, 3] of 44 mg/kg.

CCc1nccn1CC(=O)c1ccc2c(c1)Cc1ccccc1-2 [Example 2, 2-(2-ethyl-1H-imidazol-1-yl)-1-(9H-fluoren-2-yl)ethanone] gave an ED50 [2, 4] of 188 mg/kg.

For c1ccc2c(c1)Cc1cc(C3(Cn4ccnc4)OCCO3)ccc1-2 [Example 18, 1-([2-(9H-fluoren-2-yl)-1,3-dioxolan-2-yl]methyl)-1H-imidazole], the ED50 ([2]; 4 h, 240 minutes after administration (optimal time)) was 23 mg/kg.

OC(CCn1ccnc1)c1ccc2c(c1)Cc1ccccc1-2 (stereo not shown) [Example 15, 1-(9H-fluoren-2-yl)-3-(1H-imidazol-1-yl)-1-propanol] showed an ED50 [2, 3] of 33 mg/kg.

Work on OC(Cn1ccnc1)c1ccc2c(c1)Cc1ccccc1-2 (stereo not shown) [Example 14, 1-(9H-fluoren-2-yl)-2-(1H-imidazol-1-yl)-1-ethanol] yielded an ED50 [2, 3] of 22 mg/kg.

In the case of CC1(C)COC(Cn2ccnc2)(c2ccc3c(c2)Cc2ccccc2-3)OC1 [Example 20, 1-([2-(9H-fluoren-2-yl)-5,5-dimethyl-1,3-dioxan-2yl]methyl)-1H-imidazole], the ED50 [2, 4] is reported as 65 mg/kg.

In the case of Cl.O=C(Cn1ccnc1)c1ccc2c(c1)Cc1ccccc1-2 [Example 8, 2-(1H-imidazol-1-yl)-1-(9H-fluoren-2-yl)ethanone hydrochloride], the ED50 ([2]; 3 h, 180 minutes after administration (optimal time)) is reported as 25 mg/kg.

Molecule Cc1cn(CC(=O)c2ccc3c(c2)Cc2ccccc2-3)cn1.Cl [Example 3, 1-(9H-fluoren-2-yl)-2-(4-methyl-1H-imidazol-1-yl)ethanone hydrochloride] has an ED50 [2, 3] of 90 mg/kg.

In the case of CCSC(Cn1ccnc1)c1ccc2c(c1)Cc1ccccc1-2.Cl (stereo not shown) [Example 17, 1-[2-(Ethylthio)-2-(9H-fluoren-2-yl)ethyl]-1H-imidazole hydrochloride], the ED50 [2, 3] is reported as 44 mg/kg.

For Cl.c1ccc2c(c1)Cc1cc(C3(Cn4ccnc4)SCCS3)ccc1-2 [Example 23, 1-([2-(9H-fluoren-2-yl)-1,3-dithiolan-2-yl]methyl)-1H-imidazole hydrochloride], the ED50 [2, 4] was 41 mg/kg.

In the case of Cl.O=C(Cn1ccnc1)c1ccc2c(c1)Cc1cc(Br)ccc1-2 [Example 4, 2-(1H-imidazol-1-yl)-1-(7-bromo-9H-fluoren-2-yl)ethanone hydrochloride], the ED50 [2, 4] is reported as 79 mg/kg.

For CC(C(=O)c1ccc2c(c1)Cc1ccccc1-2)n1ccnc1.Cl (stereo not shown) [Example 12, 2-(1H-imidazol-1-yl)-1-(9H-fluoren-2-yl)-1-propanone hydrochloride], the ED50 ([2]; 1.5 h, 90 minutes after administration (optimal time)) was 35 mg/kg.

c1ccc2c(c1)Cc1cc(C3(CCn4ccnc4)OCCO3)ccc1-2 [Example 22, 1-(2-[2-(9H-fluoren-2-yl)-1,3-dioxolan-2-yl]ethyl)-1H-imidazole] showed an ED50 [2, 3] of 26 mg/kg.

In the case of CC1COC(Cn2ccnc2)(c2ccc3c(c2)Cc2ccccc2-3)O1 (stereo not shown) [Example 19, 1-([2-(9H-fluoren-2-yl)-4-methyl-1,3-dioxolan-2-yl]methyl)-1H-imidazole], the ED50 [2, 4] is reported as 21 mg/kg.

In the case of Cl.c1ccc2c(c1)Cc1cc(C3(Cn4ccnc4)OCCCO3)ccc1-2 [Example 21, 1-([2-(9H-fluoren-2-yl)-1,3-dioxan-2-yl]methyl)-1H-imidazole hydrochloride], the ED50 [2, 3] is reported as 32 mg/kg.

Work on CC(O)(Cn1ccnc1)c1ccc2c(c1)Cc1ccccc1-2 (stereo not shown) [Example 24, 1-(1H-imidazol-1-yl)-2-(9H-fluoren-2-yl)-2-propanol] yielded an ED50 [2, 4] of 14 mg/kg.
